Experimental data taken from patent publication US7250430B2, “Thiophene-and thiazolesulfonamides as antineoplastic agents” (Eli Lilly and Company, priority 2006, dated 2007).

These molecules were tested on Human Colon HCT116 tumor cells (assay: HCT116 Colon Carcinoma Cell Growth Inhibition (WST-1)). Details: HCT-116, 72 hr exposure.
Assay type: cell-based
Protocol: Human HCT 116 colon carcinoma cells were grown monolayer culture in RPMI 1640 medium supplemented with 10% fetal bovine serum and 1% penicillin-streptomycin (GibcoBRL, Grand Island, N.Y.). HCT116 cells in exponential growth phase were exposed to various concentrations of the test compounds at 37° C. for 72 hr in 5% carbon dioxide/air. After exposure to the agent, the cells were washed with 0.9% phosphate buffered saline. Growth inhibition was determined using WST-1 cell proliferation reagent as described above. The results are expressed as the growth fraction of treated cells compared with control cultures. Representative compounds of the present invention were tested for efficacy against the human colon HCT116 tumor cells.

| SMILES | IC50 |
| --- | --- |
| O=C(NS(=O)(=O)c1ccc(Cl)s1)c1ccc(Br)cc1Cl [Example 1, N-[4-bromo-2-chlorobenzoyl]-5-chlorothiophene-2-sulfonamide] | 5.6 µM |
| Cc1cc(Cl)ccc1C(=O)NS(=O)(=O)c1ccc(Br)s1 [Example 2, N-[4-chloro-2-methylbenzoyl]-5-bromothiophene-2-sulfonamide] | 6 µM |
| Cc1ccc(C(=O)NS(=O)(=O)c2ccc(Cl)s2)c(C)c1 [Example 6, N-[2,4-dimethylbenzoyl]-5-chlorothiophene-2-sulfonamide] | 20.6 µM |
| O=C(NS(=O)(=O)c1ccc(Br)s1)c1ccc(Cl)cc1F [Example 9, N-[4-chloro-2-fluorobenzoyl]-5-bromothiophene-2-sulfonamide] | 21.7 µM |
| Cc1ccc(S(=O)(=O)NC(=O)c2ccc(Cl)cc2Cl)s1 [Example 16, N-[2,4-dichlorobenzoyl]-5-(methyl)thiophene-2-sulfonamide] | 3.7 µM |
| CCc1ccc(S(=O)(=O)NC(=O)c2ccc(Cl)cc2Cl)s1 [Example 17, N-[2,4-dichlorobenzoyl]-5-(ethyl)thiophene-2-sulfonamide] | 5 µM |
| CCCc1ccc(S(=O)(=O)NC(=O)c2ccc(Cl)cc2Cl)s1 [Example 18, N-[2,4-dichlorobenzoyl]-5-(propyl)thiophene-2-sulfonamide] | 13.2 µM |
| COc1ccc(S(=O)(=O)NC(=O)c2ccc(Cl)cc2Cl)s1 [Example 19, N-[2,4-dichlorobenzoyl]-5-methoxythiophene-2-sulfonamide] | 5.8 µM |
| COCc1ccc(S(=O)(=O)NC(=O)c2ccc(Cl)cc2Cl)s1 [Example 20, N-[2,4-dichlorobenzoyl]-5-methoxymethyl-thiophene-2-sulfonamide] | 5.7 µM |
| Cc1cc(Br)ccc1C(=O)NS(=O)(=O)c1ccc(C#N)s1 [Example 29, N-[4-bromo-2-methylbenzoyl]-5-cyanothiophene-2-sulfonamide] | 17.3 µM |
| Cc1cc(Cl)ccc1C(=O)NS(=O)(=O)c1ccc(Cl)s1 [Example 30, N-[4-chloro-2-methylbenzoyl]-5-chlorothiophene-2-sulfonamide] | 15.8 µM |
| Cc1ccc(C(=O)NS(=O)(=O)c2ccc(Cl)s2)c(Br)c1 [Example 31, N-[2-bromo-4-methylbenzoyl]-5-chlorothiophene-2-sulfonamide] | 9.1 µM |
| O=C(NS(=O)(=O)c1ccc(Br)s1)c1ccc([N+](=O)[O-])cc1Cl [Example 58, N-[2-chloro-4-nitrobenzoyl]-5-bromothiophene-2-sulfonamide] | 5.2 µM |
| O=C(NS(=O)(=O)c1ccc(Br)s1)c1ccc(Cl)cc1Cl [Example 63, N-[2,4-dichlorobenzoyl]-5-bromothiophene-2-sulfonamide] | 1.3 µM |

The remaining lines, values ahead:

| IC50 | SMILES |
| --- | --- |
| 14.7 µM | O=C(NS(=O)(=O)c1cc(Br)c(Cl)s1)c1ccc(Br)cc1Cl [Example 3, N-[4-bromo-2-chlorobenzoyl]-4-bromo-5-chlorothiophene-2-sulfonamide] |
| 7.7 µM | O=C(NS(=O)(=O)c1ccc(Cl)s1)c1ccc(C(F)(F)F)cc1C(F)(F)F [Example 4, N-[2,4-bis(trifluoromethyl)-benzoyl]-5-chlorothiophene-2-sulfonamide] |
| 5.2 µM | Cc1ccc(C(=O)NS(=O)(=O)c2ccc(Br)s2)c(Cl)c1 [Example 7, N-[2-chloro-4-methylbenzoyl]-5-bromothiophene-2-sulfonamide] |
| 8 µM | Cc1cc(Cl)ccc1C(=O)NS(=O)(=O)c1ccc(C#N)s1 [Example 28, N-[4-chloro-2-methylbenzoyl]-5-cyanothiophene-2-sulfonamide] |
| 3.9 µM | O=C(NS(=O)(=O)c1ccc(Br)s1)c1ccc(Br)cc1Br [Example 32, N-[2,4-dibromobenzoyl]-5-bromothiophene-2-sulfonamide] |
| 17 µM | O=C(NS(=O)(=O)c1ccc(Br)s1)c1ccc(Br)cc1Cl [Example 54, N-[4-bromo-2-chlorobenzoyl]-5-bromothiophene-2-sulfonamide] |
| 4.5 µM | O=C(NS(=O)(=O)c1cccs1)c1ccc(Cl)cc1Cl [Example 55, N-[2,4-dichlorobenzoyl]-thiophene-2-sulfonamide] |
| 5.4 µM | O=C(NS(=O)(=O)c1ccc(-c2ccccn2)s1)c1ccc(Cl)cc1Cl [Example 56, N-[2,4-dichlorobenzoyl]-5-(2-pyridyl)-thiophene-2-sulfonamide] |
| 3.4 µM | Cc1cc(Br)ccc1C(=O)NS(=O)(=O)c1ccc(Br)s1 [Example 57, N-[4-bromo-2-methylbenzoyl]-5-bromothiophene-2-sulfonamide] |
| 1 µM | O=C(NS(=O)(=O)c1ccc(Cl)s1)c1ccc(Cl)cc1Cl [Example 61, N-[2,4-dichlorobenzoyl]-5-chlorothiophene-2-sulfonamide] |

The molecules below were run on Human Colon Carcinoma HT-29 (assay: Human Tumor Xenograft Assay, tumor growth delay). Details: Experiment A, 30 mg/kg IV, 5 consecutive days, 2 days rest.
Assay type: in vivo, mouse
Description: Inhibition of tumors transplanted into mice is an accepted procedure for studying the efficacy of antitumor agents (Corbett, et al., In vivo Methods for Screening and Preclinical Testing; Use of rodent solid tumors for drug discovery., In: Anticancer Drug Development Guide: Preclinical Screening, Clinical Trials, and Approval, B. Teicher (ed), Humana Press Inc., Totowa, N.J., Chapter 5, pages 75-99 (1997); (Corbett, et al., Int. J. Pharmacog., 33, Supplement, 102-122 (1995)). Murine tumors or human xenografts were implanted essentially as described by Corbett in In vivo Methods for Screening and Preclinical Testing; Use of rodent solid tumors for drug discovery. Briefly, the murine tumor or human xenograft was implanted subcutaneously using either 12-gauge trocar implants or counted number of cells. The location for the trocar insertion is midway between the axillary and inguinal region along the side of the mouse. The trocar is slipped approximately ¾ of an inch subcutaneously up toward the axilla before discharging the tumor fragment, and pinching the skin as the trocar is removed. Alternatively, human tumor cells prepared from cell culture (1×10^7 cells) mixed with an equal volume of Matrigel (Becton-Dickinson) were implanted subcutaneously in a hind-leg of a male or female nude mouse (Charles River). A test compound in vehicle or vehicle alone was administered by intravenous bolus injection (iv), intraperitoneal injection (ip), or oral gavage (po). Each treatment group, as well as a group of untreated control animals, consisted of eight to ten animals per group in each experiment. Subcutaneous tumor response was monitored by tumor volume measurement performed twice each week over the course of the experiment (60-120 days). Body weights were taken as a general measure of toxicity. The subcutaneous tumor data were analyzed by determining the median […] for each treatment group over the course of the experiment and calculating the tumor growth delay as the difference in days for the treatment versus the control tumors to reach a volume of either 500 or 1000 mm^3.
The compound of Example 64 was tested in two separate laboratories against a variety of murine and human tumors substantially as described supra. The parameters measured in each experiment are summarized in the following paragraphs. Tumor Weight(mg)=(a×b^2)/2 where a=tumor length (mm) and b=tumor width (mm).
Tumor Growth Delay=T−C where T is the median time (days) required for the treatment group tumors to reach a predetermined size, and C is the median time (days) for the control group tumors to reach the same size.
After palpable tumors were observed drug was administered IV for 5 consecutive days, animals rested for 2 days and compound dosed IV again for 5 consecutive days.

| SMILES | Tumor Growth Delay |
| --- | --- |
| O=C([N-]S(=O)(=O)c1ccc(Br)s1)c1ccc(Cl)cc1Cl.[Na+] [Example 64, N-[2,4-dichlorobenzoyl]-5-bromothiophene-2-sulfonamide sodium salt] | 0 ± 2 days |

Same assay, conditions: Experiment A, 60 mg/kg IV, 5 consecutive days, 2 days rest

| SMILES | Tumor Growth Delay |
| --- | --- |
| O=C([N-]S(=O)(=O)c1ccc(Br)s1)c1ccc(Cl)cc1Cl.[Na+] [Example 64, N-[2,4-dichlorobenzoyl]-5-bromothiophene-2-sulfonamide sodium salt] | 2 ± 2 days |

Same assay, conditions: Experiment A, 80 mg/kg IV, 5 consecutive days, 2 days rest

| SMILES | Tumor Growth Delay |
| --- | --- |
| O=C([N-]S(=O)(=O)c1ccc(Br)s1)c1ccc(Cl)cc1Cl.[Na+] [Example 64, N-[2,4-dichlorobenzoyl]-5-bromothiophene-2-sulfonamide sodium salt] | 2 ± 2 days |

Same assay, conditions: Experiment B, 30 mg/kg IV, 5 consecutive days, 2 days rest

| SMILES | Tumor Growth Delay |
| --- | --- |
| O=C([N-]S(=O)(=O)c1ccc(Br)s1)c1ccc(Cl)cc1Cl.[Na+] [Example 64, N-[2,4-dichlorobenzoyl]-5-bromothiophene-2-sulfonamide sodium salt] | 9 ± 4 days |

Same assay, conditions: Experiment B, 60 mg/kg IV, 5 consecutive days, 2 days rest

| SMILES | Tumor Growth Delay |
| --- | --- |
| O=C([N-]S(=O)(=O)c1ccc(Br)s1)c1ccc(Cl)cc1Cl.[Na+] [Example 64, N-[2,4-dichlorobenzoyl]-5-bromothiophene-2-sulfonamide sodium salt] | 3 ± 4 days |

Same assay, conditions: Experiment B, 80 mg/kg IV, 5 consecutive days, 2 days rest

| SMILES | Tumor Growth Delay |
| --- | --- |
| O=C([N-]S(=O)(=O)c1ccc(Br)s1)c1ccc(Cl)cc1Cl.[Na+] [Example 64, N-[2,4-dichlorobenzoyl]-5-bromothiophene-2-sulfonamide sodium salt] | 8 ± 3.6 days |
